“Also recorded” adds a separate entry of the source.
Legend:
[1] = system: murine C2C12 myotubes; test: Protein synthesis in C2C12 myotubes exposed to PIF or Angiotensin II; assay type: cell-based; settings: for suppression of the inhibition of protein synthesis by PIF and Ang II: in the presence of PIF or Ang II; for reduction of protein synthesis when incubated alone: FIG. 6, FIG. 8, b61, compared to the control
Source text: (§1) In order to determine the efficacy of branched chain amino acids (BCAAs) and other agents in reducing muscle catabolism, murine C2C12 myotubes were exposed to PIF or Angiotensin II in combination with amino acids (including BCAAs), insulin, insulin-like growth factor-1 (IGF-1), and a PKR inhibitor. PIF was extracted and purified from MAC16 tumors as described by Smith et al., Effect of a Cancer Cachectic Factor on Protein Synthesis/Degradation in Murine C2C12 Myoblasts: Modulation by Eicosapentaenoic Acid, Cancer Research, 59:5507-13 (1999), which is hereby incorporated by reference. Protein degradation was determined using the method described by Whitehouse et al., Increased Expression of the Ubiquitin-Proteasome Pathway in Murine Myotubes by Proteolysis-Inducing Factor (PIF) is Associated with Activation of the Transcription Factor NF-κB, British Journal of Cancer, 89:1116-22 (2003), which is also hereby incorporated by reference.
The measured proteolytic activity of PIF can be more specifically described as ubiquitin-like degradation activity.

[2] = system: eIF2-α; test: Densitometric analysis of Western blots of phosphorylated eIF2-α in C2C12 myotubes; assay type: cell-based, murine; settings: FIG. 2, FIG. 3, agent in combination with PIF, compared to PIF alone or to the control
Source text: as §1
The control sample was incubated only in phosphate buffered saline (PBS).

[3] = system: murine C2C12 myotubes; test: Protein degradation in C2C12 myotubes exposed to PIF or Angiotensin II; assay type: cell-based
Experimental: as §1, with “PIF” for “In order to determine the efficacy of branched chain amino acids (BCAAs) and other agents in reducing muscle catabolism, murine C2C12 myotubes were exposed to PIF or Angiotensin II in combination with amino acids (including BCAAs), insulin, insulin-like growth factor-1 (IGF-1), and a PKR inhibitor. PIF”

Compound: insulin: an anabolic hormone
- suppression of the inhibition of protein synthesis by PIF and Ang II [1]: effective in suppressing the inhibition of protein synthesis
- eIF2-α phosphorylation in the presence of PIF [2]: significantly reduced; also recorded: completely attenuated

Compound: CSCC[C@H](N)C(=O)O [methionine]
- eIF2-α phosphorylation in the presence of PIF [2]: greater than that of the control

Compound: CC[C@H](C)[C@H](N)C(=O)O [isoleucine]
- eIF2-α phosphorylation in the presence of PIF [2]: reduced such phosphorylation to about the level of the control or below

Compound: N=C(N)NCCC[C@H](N)C(=O)O [arginine]
- eIF2-α phosphorylation in the presence of PIF [2]: greater than that of the control

Compound: CC(C)C[C@H](N)C(=O)O [leucine]
- eIF2-α phosphorylation in the presence of PIF [2]: reduced such phosphorylation to about the level of the control or below

Compound: Angiotensin II (DRVYIHPF; Angiotensin-2; UniProt P01019 25-32, looked up)
- reduction of protein synthesis when incubated alone [1]: about 40%
- reduction of protein synthesis when incubated alone ([1]; listed as Ang II): 40%
- increase of protein degradation when incubated alone ([3]; FIG. 5, FIG. 7, compared to the control): about 51%

Compound: CC(C)[C@H](N)C(=O)O [valine]
- eIF2-α phosphorylation in the presence of PIF [2]: reduced such phosphorylation to about the level of the control or below

Compound: O=C1Nc2ccc3ncsc3c2/C1=C/c1cnc[nH]1 [PKR inhibitor]
- protein synthesis levels, PKR inhibitor added to PIF ([1]; FIG. 6, in combination with PIF): reversed protein synthesis levels back to about those of the control
- protein synthesis levels, PKR inhibitor added to Angiotensin II ([1]; FIG. 8, in combination with Angiotensin II): maintained protein synthesis levels at about that of the control
- protein degradation levels, PKR inhibitor added to PIF ([3]; FIG. 5, in combination with PIF): reversed protein degradation levels back to about those of the control
- protein degradation levels, PKR inhibitor added to Angiotensin II ([3]; FIG. 7, in combination with Angiotensin II): maintaining protein degradation levels at about that of the control

Compound: IGF-1: insulin-like growth factor-1
- suppression of the inhibition of protein synthesis by PIF and Ang II [1]: effective in suppressing the inhibition of protein synthesis
- eIF2-α phosphorylation in the presence of PIF [2]: significantly reduced
- eIF2-α phosphorylation in the presence of PIF ([2]; listed as IGF1): completely attenuated
